The text below walks through data of PubChem BioAssay AID248 (DTP/NCI, 2004).

The subject of this assay is L1210 leukemia ip in BDF1 mice, survival T/C. Description: NCI In Vivo Anticancer Drug Screen. Data for tumor model L1210 Leukemia (intraperitoneal) in B6D2F1 (BDF1) mice. The conditions noted are these: endpoint: mean survival time, higher = longer survival. In outline: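 Tumor was transplanted into mice, which were then dosed with test compound or vehicle alone. Survival was recorded for each group, and the treated figure was expressed relative to the control figure.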

Where [1] appears, read: dose: 100.0 mg/kg/injection, schedule: Q01DX001 (ip), vehicle: saline.
[2] abbreviates: dose: 200.0 mg/kg/injection, schedule: Q01DX001 (ip), vehicle: saline.
Setting [3] is: dose: 400.0 mg/kg/injection, schedule: Q01DX001 (ip), vehicle: saline.
Setting [4] is: dose: 100.0 mg/kg/injection, schedule: Q04DX003 (ip), vehicle: Klucel (hydroxypropylcellulose) (HPC).
Setting [5] is: dose: 200.0 mg/kg/injection, schedule: Q04DX003 (ip), vehicle: Klucel (hydroxypropylcellulose) (HPC).
The mark [6] stands for this setting: dose: 400.0 mg/kg/injection, schedule: Q04DX003 (ip), vehicle: Klucel (hydroxypropylcellulose) (HPC).
Where [7] appears, read: dose: 6.25 mg/kg/injection, schedule: Q01DX009 (ip), vehicle: saline with Tween-80.
Setting [8] is: dose: 12.5 mg/kg/injection, schedule: Q01DX009 (ip), vehicle: saline with Tween-80.
Setting [9] is: dose: 12.5 mg/kg/injection, schedule: Q04DX003 (ip), vehicle: saline with Tween-80.
Setting [10] is: dose: 25.0 mg/kg/injection, schedule: Q01DX009 (ip), vehicle: saline with Tween-80.
Where [11] appears, read: dose: 25.0 mg/kg/injection, schedule: Q04DX003 (ip), vehicle: saline with Tween-80.

Molecules are shown by their SMILES. “And” between values parts separate entries of the source, which are not always exact repeats. Identical values can stand only once. Toxic doses and inconclusive results are not listed.

As to `Nc1ncnc2c1c(C(=O)NO)cn2C1OC(CO)C(O)C1O` (stereo unspecified), the T/C is, setting by setting: (dose: 6.25 mg/kg/injection, schedule: Q01DX009 (ip), vehicle: saline) 153 % of control; (dose: 12.5 mg/kg/injection, schedule: Q01DX009 (ip), vehicle: saline) 156 % of control and 171 % of control; (dose: 25.0 mg/kg/injection, schedule: Q01DX005 (ip), vehicle: saline) 108 % of control.
As for `COc1cccc(N=Nc2ccc(N(C)C)cc2)c1`, the T/C was 95 % of control under setting [1], 95 % of control under setting [2] and 103 % of control under setting [3].
Regarding `CCOC(=O)OC1CC/C(=N\NC(N)=S)C1` (stereo unspecified), the T/C (dose: 15.0 mg/kg/injection, schedule: Q01DX Z (ip), vehicle: methylcellulose (MC)) is 104 % of control; the T/C (dose: 30.0 mg/kg/injection, schedule: Q01DX Z (ip), vehicle: methylcellulose (MC)) was 101 % of control; the T/C (dose: 60.0 mg/kg/injection, schedule: Q01DX Z (ip), vehicle: methylcellulose (MC)) is 108 % of control; the T/C (dose: 120.0 mg/kg/injection, schedule: Q01DX Z (ip), vehicle: methylcellulose (MC)) was 98 % of control.
On to `CC(=O)N(c1ccccc1)c1nc(CCl)cs1`, for which the T/C (dose: 100.0 mg/kg/injection, schedule: Q01DX001 (ip), vehicle: carboxymethylcellulose (CMC)) is 100 % of control; the T/C (dose: 100.0 mg/kg/injection, schedule: Q01DX009 (ip), vehicle: carboxymethylcellulose (CMC)) was 88 % of control; the T/C (dose: 100.0 mg/kg/injection, schedule: Q04DX002 (ip), vehicle: carboxymethylcellulose (CMC)) is 97 % of control and 100 % of control; the T/C (dose: 100.0 mg/kg/injection, schedule: Q04DX003 (ip), vehicle: carboxymethylcellulose (CMC)) is 100 % of control; the T/C (dose: 200.0 mg/kg/injection, schedule: Q01DX001 (ip), vehicle: carboxymethylcellulose (CMC)) is 108 % of control; the T/C (dose: 200.0 mg/kg/injection, schedule: Q01DX009 (ip), vehicle: carboxymethylcellulose (CMC)) was 98 % of control and 89 % of control. Moreover, the T/C runs as follows: (dose: 200.0 mg/kg/injection, schedule: Q04DX002 (ip), vehicle: carboxymethylcellulose (CMC)) 95 % of control and 103 % of control; (dose: 200.0 mg/kg/injection, schedule: Q04DX003 (ip), vehicle: carboxymethylcellulose (CMC)) 102 % of control; (dose: 400.0 mg/kg/injection, schedule: Q01DX001 (ip), vehicle: carboxymethylcellulose (CMC)) 93 % of control; (dose: 400.0 mg/kg/injection, schedule: Q01DX009 (ip), vehicle: carboxymethylcellulose (CMC)) 98 % of control and 103 % of control; (dose: 400.0 mg/kg/injection, schedule: Q04DX002 (ip), vehicle: carboxymethylcellulose (CMC)) 100 % of control and 102 % of control; (dose: 400.0 mg/kg/injection, schedule: Q04DX003 (ip), vehicle: carboxymethylcellulose (CMC)) 104 % of control.
Regarding `O=C1C2C3CCC(C4OCCO4)(O3)C2C(=O)N1Cc1ccccc1` (stereo unspecified), the T/C reads like this: (dose: 100.0 mg/kg/injection, schedule: Q04DX002 (ip), vehicle: Klucel (hydroxypropylcellulose) (HPC)) 107 % of control; (dose: 200.0 mg/kg/injection, schedule: Q04DX002 (ip), vehicle: Klucel (hydroxypropylcellulose) (HPC)) 103 % of control; (dose: 400.0 mg/kg/injection, schedule: Q04DX002 (ip), vehicle: Klucel (hydroxypropylcellulose) (HPC)) 96 % of control.
In the case of `O=C(O)CCCc1ccc2ccccc2n1`, the T/C is 101 % of control (dose: 50.0 mg/kg/injection, schedule: Q01DX001 (ip), vehicle: alkali diluted with saline); 103 % of control (dose: 100.0 mg/kg/injection, schedule: Q01DX001 (ip), vehicle: alkali diluted with saline); 97 % of control (dose: 200.0 mg/kg/injection, schedule: Q01DX001 (ip), vehicle: alkali diluted with saline); 103 % of control (dose: 400.0 mg/kg/injection, schedule: Q01DX001 (ip), vehicle: alkali diluted with saline).
Take `O=P(c1ccccc1)(c1ccccc1)C(Nc1ccc(Cl)cc1)c1ccco1` (stereo unspecified): the T/C (dose: 400.0 mg/kg/injection, schedule: Q01DX009 (ip), vehicle: gum acacia) is 92 % of control.
As to `CC(C)c1nc2c(c(=O)n(C)c(=O)n2C)n1C`, the T/C was 102 % of control (dose: 50.0 mg/kg/injection, schedule: Q01DX001 (ip), vehicle: saline); 96 % of control under setting [1]; 96 % of control under setting [2]; 108 % of control under setting [3].
For `CCOC(=O)c1cnc(SC)nc1N/N=C/c1ccccc1`, the T/C is, setting by setting: under setting [4], 100 % of control; under setting [5], 101 % of control; under setting [6], 103 % of control.
Regarding `CC(C)N=C(NC(C)C)c1ccc(NC(=O)c2ccc(C(=O)Nc3ccc(C(=NC(C)C)NC(C)C)cc3)cc2)cc1`, where the note is “dose: 15.5 mg/kg/injection, schedule: Q01DX Z (ip), vehicle: methylcellulose (MC)”, the T/C is 103 % of control.
With `COC(=O)c1ccccc1-c1c(C)cccc1[N+](=O)[O-]`, the T/C is, setting by setting: (dose: 100.0 mg/kg/injection, schedule: Q01DX009 (ip), vehicle: saline with Tween-80) 105 % of control; (dose: 200.0 mg/kg/injection, schedule: Q01DX009 (ip), vehicle: saline with Tween-80) 90 % of control; (dose: 400.0 mg/kg/injection, schedule: Q01DX009 (ip), vehicle: saline with Tween-80) 100 % of control.
As to `CC(=O)[O][Sn]([CH2]C1CCCCC1)([CH2]C1CCCCC1)[CH2]C1CCCCC1`, the T/C is 96 % of control (dose: 6.25 mg/kg/injection, schedule: Q04DX002 (ip), vehicle: saline with Tween-80) and 96 % of control (dose: 12.5 mg/kg/injection, schedule: Q04DX002 (ip), vehicle: saline with Tween-80).
Take `N#CC(C#N)=CN1CCCCCC1`: the T/C was 93 % of control under setting [7]; 96 % of control (dose: 6.25 mg/kg/injection, schedule: Q04DX003 (ip), vehicle: saline with Tween-80); 94 % of control under setting [8]; 92 % of control under setting [9]; 89 % of control under setting [10]; 94 % of control under setting [11].
Take `CCC(C)N(C)N=Nc1ccc(C(N)=O)cc1` (stereo unspecified): the T/C reads like this: (dose: 178.0 mg/kg/injection, schedule: Q01DX001 (ip), vehicle: other) 104 % of control; (dose: 267.0 mg/kg/injection, schedule: Q01DX001 (ip), vehicle: other) 112 % of control.
Regarding `COc1cc2c(cc1OC)C1CCc3cc(OC)c(OC)cc3C1N=C2` (stereo unspecified), the T/C was 102 % of control (dose: 80.0 mg/kg/injection, schedule: Q01DX009 (ip), vehicle: saline); 93 % of control (dose: 120.0 mg/kg/injection, schedule: Q01DX009 (ip), vehicle: saline); 93 % of control (dose: 240.0 mg/kg/injection, schedule: Q01DX009 (ip), vehicle: saline); 93 % of control (dose: 360.0 mg/kg/injection, schedule: Q01DX009 (ip), vehicle: saline).
Take `CCC(C)(O)C#CC#CC(C)(O)CC` (stereo unspecified): the T/C under setting [7] was 93 % of control; the T/C under setting [8] is 100 % of control; the T/C under setting [9] is 101 % of control; the T/C under setting [10] is 96 % of control; the T/C under setting [11] is 97 % of control; the T/C (dose: 50.0 mg/kg/injection, schedule: Q04DX003 (ip), vehicle: saline with Tween-80) was 87 % of control. Also, the T/C runs as follows: (dose: 100.0 mg/kg/injection, schedule: Q01DX009 (ip), vehicle: Klucel (hydroxypropylcellulose) (HPC)) 93 % of control; under setting [4], 103 % of control; (dose: 200.0 mg/kg/injection, schedule: Q01DX009 (ip), vehicle: Klucel (hydroxypropylcellulose) (HPC)) 101 % of control; under setting [5], 106 % of control; (dose: 400.0 mg/kg/injection, schedule: Q01DX009 (ip), vehicle: Klucel (hydroxypropylcellulose) (HPC)) 102 % of control; under setting [6], 104 % of control.
Regarding `CCOC(=O)c1sc2ccc([N+](=O)[O-])cc2c1C`, the T/C is, setting by setting: under setting [1], 93 % of control; under setting [2], 95 % of control; under setting [3], 104 % of control.
For the molecule `C1=C(C2=CCCCC2)CCCC1`, the T/C was 108 % of control (dose: 100.0 mg/kg/injection, schedule: Q01DX009 (ip), vehicle: acetone); 112 % of control (dose: 100.0 mg/kg/injection, schedule: Q04DX003 (ip), vehicle: saline); 100 % of control (dose: 200.0 mg/kg/injection, schedule: Q01DX009 (ip), vehicle: acetone); 104 % of control (dose: 200.0 mg/kg/injection, schedule: Q04DX003 (ip), vehicle: saline); 108 % of control (dose: 400.0 mg/kg/injection, schedule: Q01DX009 (ip), vehicle: acetone); 96 % of control (dose: 400.0 mg/kg/injection, schedule: Q04DX003 (ip), vehicle: saline).
